{"source": "patent US9695219B2", "about": "“Polypeptide having antibacterial activity and angiogenesis-inducing activity and wound-healing drug containing said polypeptide” (priority 2009, dated 2017)", "key": {"[1]": {"system": "Pseudomonas aeruginosa (clinical strain 8)", "test": "MIC measurement, broth microdilution", "type": "cell-based", "conditions": "37° C. for 20 hours; tested twice, first/second value where not matched"}, "Escherichia coli": {"system": "Escherichia coli", "test": "MIC measurement, broth microdilution", "type": "cell-based", "conditions": "37° C. for 20 hours; tested twice, first/second value where not matched", "procedure": "(§1) Further, with respect to not only the above-described strains but also various other strains, the “minimum inhibitory concentration (MIC)” was measured as follows. MIC is the lowest concentration of an agent that may inhibit the growth of a bacterium. MIC is used as a parameter for the efficacy of an antibacterial agent, for the strength of bacterial sensitivity, or the like. The bacteria can grow (proliferate) when the concentration is not higher than MIC, and cannot grow when the concentration is higher than MIC. Its measurement is carried out according to a method defined as a standard method by Japanese Society of Chemotherapy or CLINICAL AND LABORATORY […] (CLSI), but, in this Example, its measurement was carried out by a broth microdilution method in accordance with “M100-S17/M7-A7” (Performance Standards for Antimicrobial Susceptibility Testing; Seventeenth Informational Supplement, Vol. 27 No. 1) published by CLSI on January, 2007. That is, sensitivity test of agents was carried out using a microtiter plate or test tubes.\n(§2) The bacteria were cultured in liquid media for 4 to 6 hours, and thereafter absorbances at A600 were measured. Bacterial suspensions were diluted with Mueller-Hinton broth (MHB) according to McFarland #0.5. Each strain was added so as to attain about 10^5 CFU/ml (final concentration). Each peptide was prepared to an optional concentration, and the solutions were serially diluted from the concentration. The polypeptide at each concentration stage was added to a microplate or test tubes, and the bacterial suspension was added thereto. Chloramphenicol, amphotericin B, ciprofloxacin, meropenem (MEPM), ciprofloxacin (CPFX), tobramycin (TOB) and oxacillin (OX) were used as positive controls. The plate was incubated at 37° C. for 20 hours, and the lowest concentration where bacterial growth was inhibited was regarded as the minimum inhibitory concentration."}, "[2]": {"system": "Staphylococcus epidermidis", "test": "MIC measurement, broth microdilution", "type": "cell-based", "conditions": "37° C. for 20 hours; tested twice, first/second value where not matched", "procedure": "as §1, §2"}, "MSSA (clinical strain 1)": {"system": "MSSA (clinical strain 1)", "test": "microbe, parasite or virus in culture", "type": "cell-based, Staphylococcus aureus", "conditions": "37° C. for 20 hours; tested twice, first/second value where not matched", "procedure": "as §1, §2"}, "[3]": {"test": "Stability in rat serum (HPLC)", "type": "in vitro ADME", "conditions": "37° C.", "procedure": "The stability of the polypeptides in serum was evaluated. In human serum (purchased from KAC Co., Ltd.), or in rat serum obtained by collecting blood from a rat, then leaving the collected blood to stand at room temperature followed by centrifugation, each of the peptides was dissolved so as to attain a final concentration of 500 μg/mL, and the obtained solutions were left to stand at 37° C. After leaving to stand for 3 min or 10 min, these solutions were subjected to HPLC chromatogram analysis to detect peaks of the decomposition products, and calculate the ratio of the concentration of the peptides which remained in the solutions relative to the starting concentration. In addition, the half-lives of the peptides in serum were also calculated."}, "[4]": {"system": "rat infected-wound model (wound infected with Staphylococcus aureus)", "test": "Healing effect in infected wounds", "type": "in vivo", "conditions": "50 μg dropwise Days 0-3 with Staphylococcus aureus, followed to Day 10; vs bFGF formulation 3 μg", "procedure": "Referring to Stenberg B D et al. (J Surg Res. 1991 January; 50(1):47-50.) and Hayward P et al. (Am J Surg. 1992 March; 163(3):288-93.), a rat infected-wound model was produced as described below. HWY/slc hairless rats (male, 7-week old, obtained from Japan SLC, Inc.) were used. The day before full-thickness defects were created, the number of leukocytes was measured and cyclophosphamide was administered in tail vein (100 mg/kg). On the next day, the number of leukocytes was counted. Only the individuals in which the number of leukocytes was not more than 5000, were used. A square-shaped full-thickness defects of 1.73×1.73 cm (about 3 cm^2) were created on the back of the rats, and 25 μL of Staphylococcus aureus (about 10^5 CFU/25 μL) and SR-07 or SR-08 peptide as a test substance (2 mg/mL) was added dropwise onto the defect sites (the administered amount was 50 μg). On the other hand, 25 μL of the bFGF formulation (3 μg/25 μL) was added dropwise in the bFGF formulation (a positive control) group, and 25 μL of physiological saline was added dropwise in the negative control groups. […] From the day when the full-thickness defects were created to Day 10, the area where the wounds had still not healed was measured to calculate the ratio of it relative to the area where the wounds were created, and the results were shown in graphs (FIG. 9 (SR-07) and FIG. 10 (SR-08))."}, "[5]": {"system": "decubitus model, hairless rats", "test": "Healing effect on decubituses", "type": "in vivo, rat", "conditions": "0.2 μg/uL (4 μg/wound)", "procedure": "In order to confirm the healing effect on a decubitus, one of skin ulcers, a decubitus model was produced using 7-week old male hairless rats (HWY/slc), and the healing effect of the polypeptides of the present invention was examined. A pair of magnets (φ10×5 mm; available from AZBIO KENIS; rare earth magnets; Type: KD-2; Code: 3-118-119; and, Magnetic Flux Density: 350 mT) was contacted to the skin of the back of each rat for 8 hours to induce a decubitus. On the day after inducing the decubitus, the necrotic skin was surgically removed to obtain a decubitus model. After producing the decubitus model, the test substance was administered onto the wound site, and a covering was used to cover over that (Day 0). Only a covering was used in the Control. Thereafter, on every measurement day, the test substance was administered once a day, and the change of the area of the wound was measured by calculating measured values from a digital caliper and digital images. The concentration of the test substances were individually 0.2 μg/uL (4 μg/wound). The area where the burns had still not healed was measured to calculate the ratio of it relative to the area where the burns were created (Day 0)."}, "cut-wound model, SD rats": {"system": "cut-wound model, SD rats", "test": "Evaluation of skin tissue in cut wound healing (HE staining)", "type": "in vivo, rat", "conditions": "10 μg dropwise once a day until suture removal, skin collected Day 6", "procedure": "A cut-wound model was produced using 7-week old male SD rats (Crl:CD), and the change in the skin tissue caused by administering the polypeptides of the present invention was evaluated. A cut wound of 30 to 36 mm was made on the back of the rats using a safety razor, and sutured at 3 points equally spaced (Day 0). Onto the suture site, 50 μL of each of the test substances which were respectively adjusted to the concentration of 200 μg/mL was added dropwise (the added amount was 10 μg). Each test substance was administered dropwise once a day till the day when the sutures were removed. On Day 3 after the suturing, the sutures were removed; and, on Day 6, the skin tissue in the cut wound site was collected to evaluate the skin by HE staining"}}, "note": "Where a SMILES comes first, the peptide text is derived from it. [ ]: non-standard residue; d: D form."}
{"smiles": "CC[C@H](C)[C@H](NC(=O)[C@H](CC(C)C)NC(=O)[C@H](CCCCN)NC(=O)[C@@H](N)CC(C)C)C(=O)N[C@@H](Cc1ccccc1)C(=O)N[C@@H](CC(C)C)C(=O)N[C@@H](Cc1c[nH]cn1)C(=O)N[C@@H](CCCNC(=N)N)C(=O)N[C@@H](CC(C)C)C(=O)N[C@@H](CCCCN)C(=O)N[C@@H](CCCNC(=N)N)C(=O)N[C@@H](CCSC)C(=O)N[C@@H](CCCNC(=N)N)C(=O)N[C@@H](CCCCN)C(=O)N[C@@H](CCCNC(=N)N)C(=O)N[C@@H](CC(C)C)C(=O)N[C@H](CCCCN)C(=O)N[C@@H](CCCNC(=N)N)C(=O)N[C@@H](CCCCN)C(N)=O", "note": "[SR-08] (H-LKLIFLHRLKRMRKRL[dK]RK-NH2; N-terminus assumed)", "values": [{"measurement": "MIC, Pseudomonas aeruginosa (clinical strain 8)", "setting": "[1]", "value": "16/32"}, {"measurement": "MIC, Escherichia coli", "setting": "Escherichia coli", "value": "32/64"}, {"measurement": "MIC, Staphylococcus epidermidis", "setting": "[2]", "value": "8> μg/mL"}, {"measurement": "MIC, MSSA (clinical strain 1)", "setting": "MSSA (clinical strain 1)", "value": "16/32"}, {"measurement": "Ratio of peptide remaining relative to the starting concentration, rat serum, 0 min", "setting": "[3]; 500 μg/mL, 0 min", "value": 100}, {"measurement": "remaining at 0.05 h, 500 μg/mL", "setting": "[3]; rat, rat serum, 3 min, read-out: Ratio of peptide remaining relative to the starting concentration, rat serum, 3 min", "value": 87, "unit": "%"}, {"measurement": "remaining at 10 min, 500 μg/mL", "setting": "[3]; rat, rat serum, 10 min, read-out: Ratio of peptide remaining relative to the starting concentration, rat serum, 10 min", "value": 86.9, "unit": "%"}, {"measurement": "half-life", "setting": "[3]; rat, serum, 500 μg/mL", "value": 1, "unit": "h"}, {"measurement": "Healing effect on infected wounds (unhealed area ratio, FIGS. 9 and 10)", "setting": "[4]", "value": "showed a higher healing effect on infected wounds than the bFGF formulation"}, {"measurement": "Healing effect on decubitus (unhealed area ratio, FIGS. 16 and 17)", "setting": "[5]; once a day", "value": "showed a therapeutic effect also in decubituses"}, {"measurement": "Ratio of remaining wound area on Day 12, Mean Value", "setting": "[5]; decubitus model, Day 12, Control Group 4.516729", "value": 0.7902}, {"measurement": "Granulation and collagen at cut wound site (HE staining)", "setting": "cut-wound model, SD rats", "value": "increased compared to Saline"}, {"measurement": "Thickening in stratum spinosum epidermidis (HE staining)", "setting": "cut-wound model, SD rats", "value": "less than the saline group"}]}
